Data as given in US20050255504A1, “Method of detecting an increased susceptibility to breast cancer” (priority 2004, published 2005).

Experiments:
[1] = test system: renal DNA; details: hamster, in vivo; cited from earlier work
[2] = target: T1, COMT (Homo sapiens, UniProt P21964); assay: Assay of COMT activity: methylation of catechol estrogens by purified recombinant His-COMT; assay type: biochemical; details: substrate of COMT, FIG. 9
T1 construct: made in house; host or cells: Escherichia coli DH5alphaF'Iq
T1 sequence (P21964 1-221 isoform P21964-2): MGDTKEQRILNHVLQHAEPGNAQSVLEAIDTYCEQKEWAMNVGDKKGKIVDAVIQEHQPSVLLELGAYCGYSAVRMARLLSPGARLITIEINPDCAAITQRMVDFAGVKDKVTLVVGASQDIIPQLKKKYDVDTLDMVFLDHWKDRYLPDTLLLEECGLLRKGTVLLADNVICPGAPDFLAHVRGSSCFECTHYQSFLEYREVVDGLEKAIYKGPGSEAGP
Method: Assay of COMT Activity. Purified recombinant His-COMT (300 pmol) was reconstituted in 0.5 ml of 100 mM KPO4, pH 7.4, containing 5 mM MgCl2, 10 mM (β-mercaptoethanol, and 200 μM SAM. Reactions were initiated by adding varying concentrations of each individual catechol estrogen (2, 3, 6, 9, 12, 15, 20, 40, 60, 80, and 100 μM). Blanks contained all compounds except SAM. Reactions proceeded for 10 min at 37° C. with gentle shaking and then were terminated by addition of 2 ml CH2Cl2. To determine COMT activity in breast cancer cells, ZR-75 and MCF-7 cells were harvested at confluency and homogenized in 100 mM KP04, pH 7.4, 5 mM MgCl2, 10 mM β-mercaptoethanol. Following ultracentrifugation of the cell homogenate (110,000 g, 30 min, 4° C.), the supernatant cytosol was divided into aliquots for ICELISA, protein determination (BCA assay; Pierce, Rockford, Ill.), and COMT assay. The latter was carried out in the presence of 200 μM SAM and 100 μM catechol estrogen for 20 min at 37° C. and then terminated by addition of CH2Cl2. The concentration of endogenous catechol and methoxy estrogens was below the limit of detection by gas chromatography/mass spectrometry.
Extraction and Gas Chromatography/Mass Spectrometry Analysis of Catechol Estrogens. A deuterated internal standard (100 μl of 8 mg/liter E2-d4 in methanol) was added and all estrogens extracted into the CH2Cl2 by vortex mixing for 30 s. 1.5 ml of the CH2Cl2 fraction was evaporated to dryness under air and volatile TMS derivatives prepared by heating the residue with 100 μl of 50% NO-bis(trimethylsilyl)trifluoroacetamide/1% trimethyl chlorosilane in acetonitrile at 56° C. for 30 min. The TMS derivatives of the estrogen metabolites were separated by gas chromatography (H—P 5890, Hewlett-Packard, Wilmington, Del.) on a 5% phenyl methyl silicone stationary phase fused silica capillary column (30 m×0.2 mm×0.5 μm film, HP5; Hewlett-Packard). Helium carrier gas was used at a flow of 1 ml/min. The injector was operated at 250° C., with 2 μl injected in the splitless mode, with a purge (60 ml/min helium) time of 0.6 min. The oven temperature was held at 180° C. for 0.5 min, then raised at 6° C./min to 250° C. where it was held for 17 min, then raised to 300° C. at 8° C./min to give a total run time of 35.42 min. This program permitted adequate separation of a wide range of estrogen metabolites. Retention times (in min) for the TMS derivatives were E1 20.13, E2 and E2-d4 21.89, 4-MeOE1 23.52, 2-MeO-3-MeOE1 (underivatized) 23.75, 2-OH-3-MeOE1 24.87, 2-MeOE1 25.2, 4-MeOE2 25.78, 2-OHE1 and 2-MeO-3-MeOE2 26.19, 2-OH-3-MeOE2 26.9, 2-MeOE2 27.18, 4-OHE1 27.27, 6a-OHE2 27.29, 2-OHE2 27.44, 4-OHE2 28.06, E3 28.38. The E1 mass spectrometer (H—P 5970) was operated in the selected ion monitoring mode from 18 to 30 min. Ions monitored were TMS-E1 342, 257, 343; TMS2-E2-d4 420, 421, 287; TMS2-E2 416, 417, 285; TMS-4-MeOE1, TMS-2-OH-3-MeOE1, TMS-2-MeOE1 and TMS-3-MeO-4-OHE1 372, 373, 342; 2-MeO-3-MeOE1 314, 315, 229; TMS2-4-MeOE2, TMS2-2-OH-3-MeOE2, TMS2-2-MeOE2 and TMS2-3-MeO-4-OHE2 446, 447, 315; TMS2-2-OHE1 430, 431, 432; TMS-2-MeO-3-MeOE2 388, 389, 257; TMS2-4-OHE1 430, 431, 345; TMS2-6α-OHE2 414, 283, 309; TMS3-2-OHE2 and TMS3-4-OHE2 504, 505, 373; TMS3-E3 504, 505, 311 (FIG. 7). The instrument was calibrated by simultaneous preparation of an 11-point calibration over the range 0-22 nmol/tube of each compound. Sensitivity was determined to be between 0.02 and 0.04 nmol/tube (400-800 finol on column) for the various compounds. […] Absolute extraction efficiency for E2,2-OH-E2 and 4-OH-E2 at 3.5 nmol/tube was 119, 96, and 107% assessed by comparison to injections of spiked solvent samples onto the gas chromatograph. Internal standard added prior to extraction compensated for deviation from 100% recovery for all investigated compounds.
Statistical Analysis. […]

C[C@]12CC[C@@H]3c4ccc(O)c(O)c4CC[C@H]3[C@@H]1CC[C@@H]2O [Variant 4-OHE2]
levels of the oxidized base 8-hydroxy-deoxyguanosine in renal DNA [1]: significantly increased
pattern of the rates of methylation versus substrate concentration [2]: sigmoid curve pattern
